Where “and” joins values, the source holds several entries; their conditions need not be identical. Equal entries are not always repeated. Marks after values point to notes of the source that are not given here.
How the values were obtained:
[1] = test system: PGC1α, mtTFA, PINK1, Parkin; assay: Immunoblotting of right ventricle for mitogenesis and mitophagy markers; format: in vivo, rat; conditions: PAH rats, ~6 mg·kg^−1·day^−1 i.p. minipump, 28 days; result in words
Description: Protein lysates were prepared from the right ventricle using RIPA buffer (ThermoFisher, Waltham, MA, USA) and supplemented with 0.5% proteinase inhibitor cocktail (Sigma-Aldrich, St. Louis, MO, USA) and 0.5% Halt™ phosphatase inhibitor (ThermoFisher, Waltham, MA, USA). […] Twenty micrograms of total protein per sample was loaded on mini-PROTEAN precast gradient gels (4–15% denaturing SDS–polyacrylamide gel; Bio-Rad, Hercules, CA, USA), separated by gel electrophoresis, and blotted onto nitrocellulose membrane using the Trans-Blot turbo system (Bio-Rad, Hercules, CA, USA) according to standard protocols. Blots were blocked with 5% bovine serum albumin in 20 mM Tris-HCl (pH 7.4) at room temperature for 30 min and incubated at 4 °C overnight with primary antibodies to mtTFA (sc-166965, Santa Cruz Biotechnology, Dallas, TX, USA), PGC1α (NBP1-04676, Bio-Techne, Abingdon, UK), PINK1 (BC100-494, Bio-Techne, Abingdon, UK), Parkin (sc-32282, Santa Cruz Biotechnology, Dallas, TX, USA), or Tubulin (Sigma-Aldrich, St. Louis, MO, USA), all at a dilution of 1:500. Alkaline phosphatase-conjugated secondary antibodies and NBT/BCIP (Bio-Rad, VA, USA) were used for detection. Densitometric analysis was performed using Totallab 120 (Nonlinear Dynamics, Newcastle upon Tyne, UK).

PAH rats [2] = assay: Echocardiogram and hemodynamic measurements in monocrotaline + aortocaval shunt PAH rats; format: in vivo, rat; set-up: LVOT VTI / PV Acceleration slope: unit not given here
Description: Animal care and experiments were approved by the Institutional Animal Care and Use Committee (CCD # AVD105002015129) and in accordance with the ARRIVE guidelines. Forty (40) male Wistar rats (Harlan, 7–9 weeks old, weighing 276 ± 15 g) were used. PAH was induced by a single i.p. injection of monocrotaline (60 mg·kg^−1) and the placement of an aortocaval shunt one week later as described previously.
The administration of vehicle and SUL-150 started 7 days post-monocrotaline injection and was performed by the i.p. implantation of osmotic minipumps (Alzet model #2004, Durect Corp., Cupertino, CA, USA) at the time of aortocaval shunt placement. The Lynch coil method was used to circumvent compatibility issues with the osmotic minipump reservoir as described previously. Vehicle (dimethyl sulfoxide (DMSO) or SUL-150 ((R)-(6-hydroxy-2,5,7,8-tetramethylchroman-2-yl)(piperazin-1-yl)methanone, 0.9 M in DMSO, Sulfateq BV, Groningen, The Netherlands) was administered at a flow rate of 0.25 µL·h^−1, accumulating to an approximate dose of 6 mg·kg^−1·day^−1 SUL-150 in a 300 g rat. Animals were weighed, watched for dyspnea, cyanosis, and oedema, and sacrificed preterm when a 15% weight loss or debilitating dyspnea occurred.
Echocardiographic (ECG) examination was performed under isoflurane anesthesia (5% in air during induction, 2% in air during maintenance) via inhalation prior to euthanisation using a Vivid Dimension 7 system and 10S-transducer (GE Healthcare, Waukesha, WI, USA). Ventricular dimensions, eccentricity index, and flow profiles over the aortic, pulmonary, and tricuspid valves were measured in standard views. Cardiac output (mL·min^−1) was calculated using the following equation: CO(mL·min^−1)=(LVOTarea×LVOTVTI)×HR , wherein LVOT area is the area of the left ventricular outflow tract, LVOT VTI is the velocity-time integral and HR is heart rate. Subsequent to ECG, invasive hemodynamic measurements were performed using a closed chest technique as described by others. A fluid-filled pressure catheter was inserted into the right internal jugular vein and guided to the pulmonary artery under pressure waveform monitoring using a bedside monitor. Right ventricular systolic and diastolic pressure, pulmonary arterial pressures, and pulmonary wedge pressure were measured. Mean pulmonary arterial pressure (mmHg) was calculated as: mPAP(mmHg)=(2/3dPAP+1/3sPAP) , wherein dPAP and sPAP are diastolic and systolic pulmonary artery pressure, respectively. Total pulmonary vascular resistance was estimated as: PVRmmHg·mL·min^−1=(mPAP−PCWP)/CO , wherein mPAP, mPWP, and CO are mean pulmonary artery pressure, pulmonary capillary wedge pressure, and cardiac output, respectively.

PAH rats [3] = assay: Heart weights and Fulton index at sacrifice; format: in vivo, rat; conditions: ~6 mg·kg^−1·day^−1 i.p. minipump, 28 days
Description: Rats were euthanized under 3–5% isoflurane anesthesia by exsanguination by aorta puncture. Hearts, lungs, and pulmonary arteries were harvested and processed for further analyses. The hearts were weighed and dissected into the left atrium, ventricle, right atrium, and ventricle and septum, which were all individually weighted. The Fulton Index was calculated as: Fulton Index=RV/(LV+IVS) , wherein RV and LV are right and left ventricular weights, respectively, and IVS is the weight of the interventricular septum. The right ventricle was cut in half, and one half was fixed in 3.6% formalin and embedded in paraffin. The other half was snap frozen in liquid nitrogen. The left lung lobe was fixed by filling the airways with 3.6% formalin and embedded in paraffin. The right lung lobe was snap frozen in liquid nitrogen.

[4] = test system: neonatal rat cardiomyocytes; assay: In vitro hypertrophy reporter assay in phenylephrine-treated cardiomyocytes; format: cell-based
Description: Cultures of neonatal rat cardiomyocytes were prepared from 1–3-day-old Wistar rats and adenovirally transformed with hypertrophy reporter construct as described elsewhere. Cardiomyocytes were pre-incubated with SUL-150 (3 × 10^−5 M) or vehicle for 30 min and subsequently stimulated with phenylephrine in the dose range of 10^−8 to 10^−4 M for 24 h. Cells were lysed in passive lysis buffer (Promega, Madison, WI, USA), and […] intensity of the lysate was recorded in an EnVision 2102 plate reader (Perkin Elmer, Waltham, MA, USA).

[5] = PAH rats, ~6 mg·kg^−1·day^−1 i.p. minipump, 28 days
[6] = PAH rats, ~6 mg·kg^−1·day^−1 i.p. minipump, 28 days, echocardiography
[7] = PAH rats, ~6 mg·kg^−1·day^−1 i.p. minipump, 28 days, result in words
[8] = SUL-150-treated versus vehicle-treated PAH rats

## Cc1c(C)c2c(c(C)c1O)CC[C@](C)(C(=O)N1CCNCC1)O2 [SUL-150, (R)-(6-hydroxy-2,5,7,8-tetramethylchroman-2-yl)(piperazin-1-yl)methanone]
[1]
  right ventricular protein expression of PGC1α and mtTFA: did not alter
  right ventricular protein expression of PINK1 and Parkin: maintained the expression
PAH rats [2]; [5]
  Pulmonary artery pressure, Diastolic: 19.0 ± 5.7 mmHg
  Pulmonary artery pressure, Mean (mPAP): 27.7 mmHg and 27.7 ± 5.8 mmHg and 27.7 ± 5.8 ^a mmHg
  Pulmonary wedge pressure, Mean: 4.8 ± 1.9 mmHg
  Tricuspid valve insufficiency, Average grade (0–3): 1.0 ± 1.0 ^a,b
  Tricuspid valve insufficiency, Mild: 14.3%
  Tricuspid valve insufficiency, Moderate: 42.9%
  Tricuspid valve insufficiency, Severe: 0%
PAH rats [2]; PAH rats, ~6 mg·kg^−1·day^−1 i.p. minipump, 28 days, (mPAP−PCWP)/CO
  Vascular resistance, Pulmonary: 0.12 ± 0.05 mmHg·min·mL^−1
PAH rats [2]; [6]
  LVIDd: 4.27 ± 0.46 mm
  LVOT Pmax: 5.57 ± 3.73 mmHg
  LVOT VTI: 6.16 ± 2.33
  LVOT Vmax: 1.12 ± 0.39 m·s^−1
  LVOT diameter: 3.37 ± 0.24 ^b mm
  PAAT: 17.07 ± 4.17 ms
  PV Acceleration slope: 65.37 ± 19.75
  PV Pmax: 5.74 ± 1.50 mmHg
  PV Vmax: 1.14 ± 0.19 m·s^−1
  RVIDd: 3.87 ± 1.37 ^b mm
  RVIDd/LVIDd ratio: 0.92 ± 0.35
  TAPSE: 2.90 ± 0.49 ^b mm
PAH rats [2]; [7]
  cardiac output: normalized
  heart rate: normalized
PAH rats [2]; [8]
  decrease in diastolic pulmonary artery pressure compared to PAH rats: 25%
  decrease in right ventricle inner diameter in diastole versus PAH rats: 38%
  decrease in right ventricular pressure at diastole versus PAH rats: 52%
  increase in stroke volume compared to vehicle-treated PAH rats: 68%
PAH rats [3]
  Heart weight (relative to body weight): 4.37 ± 0.66 ^a mg·g^−1
  IVS weight (relative to body weight): 0.81 ± 0.22 mg/g
  LA weight (relative to body weight): 0.23 ± 0.11 ^a mg·g^−1
  LV weight (relative to body weight): 1.60 ± 0.29 ^a mg·g^−1
  RA weight (relative to body weight): 0.38 ± 0.12 ^a mg·g^−1
  RV weight (relative to body weight): 1.23 ± 0.31 ^a mg·g^−1
PAH rats [3]; RV/(LV+IVS)
  Fulton Index: 0.51 ± 0.09 ^a
[4]; SUL-150 3 × 10^−5 M pre-incubated 30 min, phenylephrine 24 h
  Emax of phenylephrine in hypertrophy reporter with SUL-150 co-treatment: 2.36 RFU
[4]; SUL-150 3 × 10^−5 M versus vehicle
  reduction in phenylephrine efficacy in hypertrophy reporter: 40%

Source: article PMC12346692, “SUL-150 Limits Vascular Remodeling and Ventricular Failure in Pulmonary Arterial Hypertension” (International Journal of Molecular Sciences, 2025)
